Broadly, the IC50 is the concentration that inhibits the measured activity by half.

What all share (assay): CTG assay, effect on proliferation ability of tumor cells
Holding throughout (assay type): cell-based, human

In one assay the test system is Calu-3. The conditions noted are these: Calu-3, 168 h, read-out: IC50 (nM) Calu-3. On the procedure: (§1) Test method for the effect of camptothecin on the proliferation ability of tumor cells: The effect of camptothecin derivatives K1, K2, K3, K4, K5, K6, K7, K8, and K9 on the proliferation ability of tumor cells was tested using the CTG assay. Test cells (see Table 1) were digested, resuspended, and counted. The supernatant was removed by centrifugation, and the cell density was adjusted. Cell counting was performed with a cell counter: 20 µl of the cell suspension was aspirated, mixed with 20 µl of trypan blue, and 20 µl of the mixture was taken for cell counting. Cells were seeded into 96-well cell culture plates respectively, with 180 µl added to each well, and 1000 cells were plated per well. The plate was tapped gently to mix, and then placed in a 37°C cell incubator for incubation for 16 hours. Compounds were diluted with McCoy's 5A medium, and 20 µl was added to each well to achieve a maximum concentration of 100 nM, followed by 3-fold serial dilution with 10 concentration points. DMSO was used as the vehicle control, and 20 µl of McCoy's 5A medium was added to the blank control. The plate was tapped gently to mix, and then placed in a 37°C cell incubator for incubation for 7 days. After 7 days of incubation, the cell plate was taken out of the incubator, the culture medium was aspirated, 20 µl of culture medium was added to each well, and then 20 µl of CTG was added to each well. The plate was shaken on a shaker for 5 min and incubated at room temperature for 10 min. Then, 30 µl of the reaction solution was transferred to a Viewplate-96 white microplate (transparent bottom), and data analysis was performed on an EnVision microplate reader. [formula] Table 1. Overview of cell lines used in this screening

Another assay concerns HCT-116. The conditions noted are these: HCT-116, 168 h, read-out: IC50 (nM) HCT-116. On the procedure:
as §1

The subject of the next assay is NCI-N87. The conditions noted are these: NCI-N87, 168 h, read-out: IC50 (nM) NCI-N87. On the procedure:
as §1

Where [1] appears, read: human lung adenocarcinoma cells, 7 days incubation, CTG.
[2] abbreviates: human colon cancer cells, 7 days incubation, CTG.
The mark [3] stands for this setting: human gastric cancer cells, 7 days incubation, CTG.

Like-named read-outs stand apart in the source and are kept apart here.

Consider `CC[C@@]1(O)C(=O)OCc2c1cc1n(c2=O)Cc2c-1nc1cc(F)c(C)cc1c2-c1cn(CCO)nn1` [Compound K1], for which the IC50 with Calu-3 (Homo sapiens) was determined as 0.22 nM; in the assay with HCT-116 (Homo sapiens), 0.77 nM; in the assay on NCI-N87 (Homo sapiens), 1.89 nM.

Take `CC[C@@]1(O)C(=O)OCc2c1cc1n(c2=O)Cc2c-1nc1cc(F)c(C)cc1c2-c1cn(CCCO)nn1` [Compound K2]: the figures for the IC50 in the assay with Calu-3 (setting [1]), in the assay on HCT-116 (setting [2]) and in the assay on NCI-N87 (setting [3]) were 0.29 nM, 0.89 nM and 2.21 nM, respectively.

With `CC[C@@]1(O)C(=O)OCc2c1cc1n(c2=O)Cc2c-1nc1cc(F)c(C)cc1c2-c1cnn(CCCCO)c1` [Compound K6], the IC50 stood at 0.28 nM in the assay with Calu-3 (setting [1]), 0.78 nM in the assay on HCT-116 (setting [2]) and 2.88 nM in the assay on NCI-N87 (setting [3]).

On to `CC[C@@]1(O)C(=O)OCc2c1cc1n(c2=O)Cc2c-1nc1cc(F)c(C)cc1c2-c1cn(CCCCO)nn1` [Compound K3], for which the figures for the IC50 in the assay on Calu-3 (setting [1]), in the assay on HCT-116 (setting [2]) and in the assay with NCI-N87 (setting [3]) were 0.43 nM, 1.36 nM and 3.11 nM, respectively.

As to `CC[C@@]1(O)C(=O)OCc2c1cc1n(c2=O)Cc2c-1nc1cc(F)c(C)cc1c2-c1ccn(CCO)n1` [Compound K7], the IC50 in the assay with Calu-3 (setting [1]) amounted to 1.13 nM; with HCT-116 (setting [2]), 2.24 nM; with NCI-N87 (setting [3]) it was 5.34 nM.

Consider `CC[C@@]1(O)C(=O)OCc2c1cc1n(c2=O)Cc2c-1nc1cc(F)c(C)cc1c2-c1ccn(CCCO)n1` [Compound K8], for which the IC50 in the assay on Calu-3 (setting [1]) turned out to be 1.24 nM; with HCT-116 (setting [2]), 3.21 nM; in the assay with NCI-N87 (setting [3]), 6.76 nM.

On to `CC[C@@]1(O)C(=O)OCc2c1cc1n(c2=O)Cc2c-1nc1cc(F)c(C)cc1c2-c1cnn(CCCO)c1` [Compound K5], for which the IC50 was found to be 0.18 nM in the assay on Calu-3 (setting [1]), 0.35 nM in the assay with HCT-116 (setting [2]) and 2.07 nM in the assay with NCI-N87 (setting [3]).

Consider `CC[C@@]1(O)C(=O)OCc2c1cc1n(c2=O)Cc2c-1nc1cc(F)c(C)cc1c2-c1ccn(CCCCO)n1` [Compound K9], for which the results for the IC50 in the assay on Calu-3 (setting [1]), in the assay on HCT-116 (setting [2]) and with NCI-N87 (setting [3]) were 1.89 nM, 3.87 nM and 7.82 nM, respectively.

Regarding `CC[C@@]1(O)C(=O)OCc2c1cc1n(c2=O)Cc2c-1nc1cc(F)c(C)cc1c2-c1cnn(CCO)c1` [Compound K4], the IC50 with Calu-3 (Homo sapiens) stood at 0.15 nM; in the assay with HCT-116 (Homo sapiens), 0.42 nM; in the assay with NCI-N87 (Homo sapiens) it was 1.72 nM.

For the origin of these results see patent publication EP4748842A1, “CAMPTOTHECIN COMPOUND, ANTIBODY DRUG CONJUGATE, AND PREPARATION METHOD THEREFOR AND USE THEREOF” (Shanghai Pharmaceuticals Holding Co., Ltd., priority 2023, dated 2025).
